Like-named read-outs stand apart in the source and are kept apart here.
Legend:
[1] = compared to intravenous administration; extensive first-pass effect; cited from earlier work
P-gp = conditions: inhibitor for P-gp; cited from earlier work
CYP3A4/5 [2] = conditions: strong index inhibitor of CYP3A4/5; cited from earlier work
Safety assessments = assay type: in vivo, human; conditions: single dose of milvexian alone and in combination with itraconazole or diltiazem
[3] = system: arterial and venous thrombosis; conditions: preclinical models of arterial and venous thrombosis; cited from earlier work
[4] = assay type: in vivo, human
P-glycoprotein (P-gp) = conditions: preclinical results; ref unpublished data; cited from earlier work
CYP3A4/5 [5] = conditions: preclinical results; ref unpublished data; cited from earlier work
[6] = co-administration of itraconazole

Structure (SMILES): COc1ccc([C@@H]2Sc3ccccc3N(CCN(C)C)C(=O)[C@@H]2OC(C)=O)cc1 [Diltiazem]
- absolute oral bioavailability [1]: about 40%

Structure (SMILES): CCC(C)n1ncn(-c2ccc(N3CCN(c4ccc(OCC5COC(Cn6cncn6)(c6ccc(Cl)cc6Cl)O5)cc4)CC3)cc2)c1=O (stereo not shown) [Itraconazole]
- increase in the AUC of digoxin (P-gp): > 1.25 fold
- increase in the AUC of sensitive substrates (CYP3A4/5 [2]): ≥ 10 fold

Structure (SMILES): C[C@@H]1CCC[C@H](n2cnc(-c3cc(Cl)ccc3-n3cc(Cl)nn3)cc2=O)c2cc(ccn2)-c2c(cnn2C(F)F)NC1=O [Milvexian]
- deaths or serious AEs during the study (Safety assessments): no deaths or serious AEs
- antithrombotic activity [3]: demonstrated antithrombotic activity while preserving homeostasis
- AUC(0–T) higher compared with milvexian alone ([4]; co-administration of diltiazem): 38%
- AUC(INF) higher compared with milvexian alone ([4]; co-administration of diltiazem): 38%
- C24 higher compared with milvexian alone ([4]; co-administration of diltiazem): 64%
- mean Cmax higher compared with milvexian alone ([4]; co-administration of diltiazem): 9.6%
- mean T1/2 longer compared with milvexian alone ([4]; co-administration of diltiazem): ~1.1 fold
- AUC(0–T) higher compared with milvexian alone [4, 6]: 2.5 fold
- AUC(INF) higher compared with milvexian alone [4, 6]: 2.5 fold
- C24 higher compared with milvexian alone [4, 6]: 3.8 fold
- mean T1/2 longer compared with milvexian alone [4, 6]: approximately 1.5 fold
- effect of co-administration on median Tmax of milvexian ([4]; co-administration of itraconazole or diltiazem): not altered
- impact of a moderate CYP3A inhibitor on milvexian exposure ([4]; diltiazem co-administration): less than 2.5 fold
- impact of a strong CYP3A inhibitor on milvexian exposure ([4]; itraconazole co-administration): < 5 fold
- substrate for P-glycoprotein (P-glycoprotein (P-gp)): substrate for P-glycoprotein
- substrate of CYP3A4/5 (CYP3A4/5 [5]): substrate of CYP3A4/5

— publication PMC9381674 (Cardiology and Therapy, 2022)
